Laboratory results as given in patent US20250215030A1, “STAT MODULATORS AND USES THEREOF” (Recludix Pharma, Inc., priority 2022, published 2025).
Read-outs that look alike come from different tables or passages of the source.

Biological target: T1, pSTAT3 (pY705-STAT3) (Homo sapiens, UniProt P40763)
T1 construct: host or cells: cryopreserved PBMC
Test: MSD-pSTAT-PBMC Assay (pSTAT3, IL-6 stimulated)
Format: cell-based
Text: Cryopreserved Peripheral Blood Mononuclear Cells (PBMC) are from AllCells. Recombinant Human IL-4 and IL-6 are from Peprotech. Mouse monoclonal anti-STAT3 antibody, rabbit monoclonal anti-pY705-STAT3 antibody, rabbit monoclonal Anti-pY641-STAT6 antibody, and lysis buffer are from Cell Signaling Technology (CST). Mouse monoclonal anti-STAT6 antibody is from BioLegend. Assay plates, blocker, and anti-rabbit secondary antibody are from Meso Scale Discovery (MSD).
Cryopreserved PBMCs were thawed out and allowed to recover overnight in IMDM+10% heat-inactivated FBS prior to plating 50,000 (STAT3) or 25,000 (STAT6) cells per well in 96-well U-bottom tissue culture plates. Cells were treated with compound for 3 hrs, then stimulated with 10 ng/mL IL-6 (STAT3) or 1 ng/mL IL-4 (STAT6) for 10 min. Cells were then spun down and washed with ice-cold PBS prior to lysing the cell pellet with 1× lysis buffer (CST) with 1× HALT protease and phosphatase inhibitor cocktail (Thermo). Lysates were transferred to and incubated overnight at 4° C. with shaking in QuickPlex 96-well high bind assay plates (MSD) pre-coated overnight with 30 μL per well of 0.6 μg/mL mouse monoclonal anti-STAT3 antibody (STAT3) or 2 μg/mL mouse monoclonal anti-STAT6 antibody (STAT6) in 1×PBS, and pre-blocked for 1 hour with 3% Blocker-A (MSD). Captured protein in the assay plates were then washed and probed with 25 μL per well of 0.25 μg/ml rabbit monoclonal anti-pY705-STAT3 antibody (STAT3) or 0.18 μg/ml rabbit monoclonal Anti-pY641-STAT6 antibody (STAT6) in 1% Blocker-A for 1 hour at room temperature with shaking, then washed and probed with 25 ul per well of 1 ug/mi Sulfo-TAG Labeled Goat Anti-Rabbit Antibody (MSD) in 1% Blocker-A for 1 hour at room temperature with shaking. Assay plates were then washed and 150 μL of 1× Read Buffer-T (MSD) was added to each well prior to reading on an SQ120 MSD Plate Reader. Assay signal from each sample was subtracted by the signal from unstimulated control wells and normalized to DMSO control wells. IC50 values were calculated using Graph Pad Prism Dose-Response Nonlinear Regression with variable slope. For both pSTAT3 and pSTAT6 A=≤100 nM; B=>100-1000 nM; C=>1000-3000 nM; and D=>3 μM.

[1] = PBMC, compound 3 hrs, then 10 ng/mL IL-6 for 10 min, MSD pY705-STAT3, read-out: pSTAT3

T1 sequence (P40763 whole entry): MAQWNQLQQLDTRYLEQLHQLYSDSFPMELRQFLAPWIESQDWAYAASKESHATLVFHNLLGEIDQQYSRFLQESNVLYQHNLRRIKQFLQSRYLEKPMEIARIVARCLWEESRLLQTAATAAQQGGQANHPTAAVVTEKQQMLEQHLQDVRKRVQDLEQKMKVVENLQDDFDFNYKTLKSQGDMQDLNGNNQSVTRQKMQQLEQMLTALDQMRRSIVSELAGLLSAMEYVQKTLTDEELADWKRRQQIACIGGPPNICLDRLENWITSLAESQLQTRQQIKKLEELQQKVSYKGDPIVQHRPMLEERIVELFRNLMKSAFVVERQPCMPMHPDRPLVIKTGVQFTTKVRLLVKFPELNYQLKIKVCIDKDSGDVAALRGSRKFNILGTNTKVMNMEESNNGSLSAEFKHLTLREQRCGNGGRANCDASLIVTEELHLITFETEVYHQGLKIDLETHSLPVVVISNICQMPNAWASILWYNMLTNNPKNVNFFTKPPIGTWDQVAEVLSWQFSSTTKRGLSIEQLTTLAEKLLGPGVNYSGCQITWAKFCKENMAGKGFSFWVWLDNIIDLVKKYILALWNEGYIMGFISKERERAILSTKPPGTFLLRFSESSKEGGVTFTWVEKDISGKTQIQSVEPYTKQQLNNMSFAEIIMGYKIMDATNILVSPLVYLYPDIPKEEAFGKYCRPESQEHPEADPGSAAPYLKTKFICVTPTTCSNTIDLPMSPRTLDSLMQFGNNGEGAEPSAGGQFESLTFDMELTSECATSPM

Structure (SMILES)	IC50 [1] [µM]	IC50 [µM]
O=C(OCOP(=O)(Cc1ccc2sc(C(=O)N[C@H]3C[C@@H]4C[C@@H]4C[C@H]4CC[C@@H](C(=O)N5CC(C(=O)N6CCOCC6)C5)N4C3=O)cc2c1)OCOC(=O)OC1CCOCC1)OC1CCOCC1 [Compound 130, ((((2-(((3S,6S,7aS, 8aR,9aR)-3-(3-(morpholine-4-carbonyl)azetidine-1-carbonyl)-5-oxodecahydro-1H-cyclopropa[d]pyrrolo[1,2-a]azocin-6-yl)carbamoyl)benzo[b]thiophen-5-yl)methyl)phosphoryl)bis (oxy))bis (methylene) bis(tetrahydro-2H-pyran-4-yl) bis(carbonate)]	> 3	–
CC(C)(CO)C(=O)OCOP(=O)(OCOC(=O)C(C)(C)CO)C(F)(F)c1ccc2sc(C(=O)N[C@H]3C[C@@H]4C[C@@H]4C[C@H]4CC[C@@H](C(=O)N5CC(C(=O)N6CCOCC6)C5)N4C3=O)cc2c1 [Compound 132, (((difluoro(2-(((3S,6S,7aS, 8aR,9aR)-3-(3-(morpholine-4-carbonyl)azetidine-1-carbonyl)-5-oxodecahydro-1H-cyclopropa[d]pyrrolo[1,2-a]azocin-6-yl)carbamoyl)benzo[b]thiophen-5-yl)methyl)phosphoryl)bis(oxy)) bis(methylene) bis(3-hydroxy-2,2-dimethyl-propanoate)]	> 3	–
CC(C)OC(=O)[C@H](Cc1ccccc1)NP(=O)(Cc1ccc2sc(C(=O)N[C@H]3C[C@@H]4C[C@@H]4C[C@H]4CC[C@@H](C(=O)N5CC(C(=O)N6CCOCC6)C5)N4C3=O)cc2c1)Oc1ccccc1 (stereo partly drawn) [Compound 134, isopropyl (((2-(((3S,6S,7aS, 8aR,9aR)-3-(3-(morpholine-4-carbonyl)azetidine-1-carbonyl)-5-oxodecahydro-1H-cyclopropa[d]pyrrolo[1,2-a]azocin-6-yl)carbamoyl)benzo[b]thiophen-5-yl)methyl) (phenoxy)phosphoryl)-L-phenyl-alaninate]	0.1 to 1	–
CC(C)OC(=O)[C@H](C)NP(=O)(Cc1ccc2sc(C(=O)N[C@H]3C[C@@H]4C[C@@H]4C[C@H]4CC[C@@H](C(=O)N5CC(C(=O)N6CCOCC6)C5)N4C3=O)cc2c1)N[C@@H](C)C(=O)OC(C)C [Compound 147, diisopropyl 2,2′-((((2-(((3S,6S,7aS, 8aR,9aR)-3-(3-(morpholine-4-carbonyl)azetidine-1-carbonyl)-5-oxodecahydro-1H-cyclopropa[d]pyrrolo[1,2-a]azocin-6-yl)carbamoyl)benzo[b]thiophen-5-yl)methyl)phosphoryl)bis(azanediyl)) (2S,2′S)-dipropionate]	> 3	–
CC(C)OC(=O)[C@H](C)NP(=O)(Oc1ccccc1)C(F)c1ccc2sc(C(=O)N[C@H]3C[C@@H]4C[C@@H]4C[C@H]4CC[C@@H](C(=O)N5CC(C(=O)N6CCOCC6)C5)N4C3=O)cc2c1 (stereo partly drawn) [Compound 153, isopropyl ((fluoro(2-(((3S,6S,7aS, 8aR,9aR)-3-(3-(morpholine-4-carbonyl)azetidine-1-carbonyl)-5-oxodecahydro-1H-cyclopropa[d]pyrrolo[1,2-a]azocin-6-yl)carbamoyl)benzo[b]thiophen-5-yl)methyl)phenoxy) phosphoryl)-L-alaninate]	0.1 to 1	–
O=C(N[C@H]1C[C@@H]2C[C@@H]2C[C@H]2CC[C@@H](C(=O)N3CC(C(=O)N4CCOCC4)C3)N2C1=O)c1cc2cc(C(F)(F)P(=O)(N[C@@H](CCc3ccccc3)C(=O)OCc3ccccc3)Oc3ccccc3)ccc2s1 (stereo partly drawn) [Compound 159, benzyl (2S)-2-(((difluoro(2-(((3S,6S,7aS, 8aR,9aR)-3-(3-(morpholine-4-carbonyl)azetidine-1-carbonyl)-5-oxodecahydro-1H-cyclopropa[d]pyrrolo[1,2-a]azocin-6-yl)carbamoyl)benzo[b]thiophen-5-yl)methyl) (phenoxy)phosphoryl)amino)-4-phenylbutanoate]	–	> 3
CCOC(=O)[C@H](C)NC(=O)OCOP(=O)(Cc1ccc2sc(C(=O)N[C@H]3C[C@@H]4C[C@@H]4C[C@H]4CC[C@@H](C(=O)N5CC(C(=O)N6CCOCC6)C5)N4C3=O)cc2c1)OCOC(=O)N[C@@H](C)C(=O)OCC [Compound 160, diethyl 2,2′-((((((((2-(((3S, 6S,7aS,8aR, 9aR)-3-(3-(morpholine-4-carbonyl)azetidine-1-carbonyl)-5-oxodecahydro-1H-cyclopropa [d]pyrrolo[1,2-a]azocin-6-yl)carbamoyl)benzo[b]thiophen-5-yl)methyl)phosphoryl)bis(oxy))bis(methylene))bis(oxy))bis(carbonate))bis(azanediyl)) (2S,2′S)-dipropionate]	> 3	–
CC(C)C[C@H](NP(=O)(Oc1ccccc1)C(F)(F)c1ccc2sc(C(=O)N[C@H]3C[C@@H]4C[C@@H]4C[C@H]4CC[C@@H](C(=O)N5CC(C(=O)N6CCOCC6)C5)N4C3=O)cc2c1)C(=O)OCc1ccccc1 (stereo partly drawn) [Compound 163, benzyl ((difluoro(2-(((3S,6S,7aS, 8aR,9aR)-3-(3-(morpholine-4-carbonyl)azetidine-1-carbonyl)-5-oxodecahydro-1H-cyclopropa[d]pyrrolo[1,2-a]azocin-6-yl)carbamoyl)benzo[b]thiophen-5-yl)methyl) (phenoxy)phosphoryl)-L-leucinate]	1 to 3	–
CC(C)CC(=O)SCCOP(=O)(N[C@@H](C)C(=O)OCc1ccccc1)C(F)(F)c1ccc2sc(C(=O)N[C@H]3C[C@@H]4C[C@@H]4C[C@H]4CC[C@@H](C(=O)N5CC(C(=O)N6CCOCC6)C5)N4C3=O)cc2c1 (stereo partly drawn) [Compound 164, benzyl ((difluoro(2-(((3S,6S,7aS, 8aR,9aR)-3-(3-(morpholine-4-carbonyl)azetidine-1-carbonyl)-5-oxodecahydro-1H-cyclopropa [d]pyrrolo[1,2-a]azocin-6-yl)carbamoyl)benzo[b]thiophen-5-yl)methyl)(2-((3-methyl-butanoyl)thio)ethoxy)phosphoryl)-L-alaninate]	> 3	–
CC(C)OC(=O)[C@H](Cc1ccccc1)OP(=O)(Oc1ccccc1)C(F)(F)c1ccc2sc(C(=O)N[C@H]3C[C@@H]4C[C@@H]4C[C@H]4CC[C@@H](C(=O)N5CC(C(=O)N6CCOCC6)C5)N4C3=O)cc2c1 (stereo partly drawn) [Compound 167, isopropyl (2S)-2-(((difluoro(2-(((3S,6S,7aS, 8aR,9aR)-3-(3-(morpholine-4-carbonyl)azetidine-1-carbonyl)-5-oxodecahydro-1H-cyclopropa[d]pyrrolo[1,2-a]azocin-6-yl)carbamoyl)benzo[b]thiophen-5-yl)methyl) (phenoxy)phosphoryl)oxy)-3-phenyl-propanoate]	> 3	–
C[C@H](OP(=O)(Oc1ccccc1)C(F)(F)c1ccc2sc(C(=O)N[C@H]3C[C@@H]4C[C@@H]4C[C@H]4CC[C@@H](C(=O)N5CC(C(=O)N6CCOCC6)C5)N4C3=O)cc2c1)C(=O)OCc1ccccc1 (stereo partly drawn) [Compound 174, benzyl (2S)-2-(((difluoro(2-(((3S,6S,7aS, 8aR,9aR)-3-(3-(morpholine-4-carbonyl)azetidine-1-carbonyl)-5-oxodecahydro-1H-cyclopropa[d]pyrrolo[1,2-a]azocin-6-yl)carbamoyl)benzo[b]thiophen-5-yl)methyl) (phenoxy)phosphoryl)oxy) propanoate]	1 to 3	–
CC(C)OC(=O)[C@H](C)NP(=O)(Cc1ccc2sc(C(=O)N[C@H]3C[C@@H]4C[C@@H]4C[C@H]4CC[C@@H](C(=O)N5CC(C(=O)N6CCOCC6)C5)N4C3=O)cc2c1)Oc1ccccc1Cl (stereo partly drawn) [Compound 191, isopropyl ((2-chlorophenoxy) ((2-(((3S,6S, 7aS,8aR,9aR)-3-(3-(morpholine-4-carbonyl)azetidine-1-carbonyl)-5-oxodecahydro-1H-cyclopropa[d]pyrrolo[1,2-a]azocin-6-yl)carbamoyl)benzo[b]thiophen-5-yl)methyl)phosphoryl)-L-alaninate]	0.1 to 1	–
CCOC(=O)[C@H](C)NP(=O)(Oc1ccccc1)C(F)(F)c1ccc2sc(C(=O)N[C@H]3C[C@@H]4C[C@@H]4C[C@H]4CC[C@@H](C(=O)N5CC(C(=O)N6CCOCC6)C5)N4C3=O)cc2c1 (stereo partly drawn) [Compound 192, ethyl ((difluoro(2-(((3S,6S,7aS, 8aR,9aR)-3-(3-(morpholine-4-carbonyl)azetidine-1-carbonyl)-5-oxodecahydro-1H-cyclopropa[d]pyrrolo[1,2-a]azocin-6-yl)carbamoyl)benzo[b]thiophen-5-yl)methyl) (phenoxy)phosphoryl)-L-alaninate]	> 3	–
